Values of other authors in PubChem BioAssay AID1259409 (Chemical Carcinogenesis Research Information System (CCRIS), 2018).

Tested on: rodent chemically induced tumor inhibition, incidence and multiplicity
Assay: CCRIS tumor inhibitor studies
Details: Carcinogen: N-METHYL-N-NITROSOUREA, 684-93-5, Route [Inhibitor]: ORAL, Promoter: NONE USED

CC1=C(/C=C/C(C)=C/C=C/C(C)=C\C(=O)O)C(C)(C)CCC1
tumour outcome (control, treated, inhibition, significance) (Dose [Inhibitor]: 25 MG/KG DAILY IN DIET STARTING 1 D AFTER LAST CARCINOGEN INJECTION AND CONTINUING FOR 256 D (STUDY DURATION: 285 D), Species: RAT, Strain/Sex: WISTAR-LEWIS/FEMALE, Target Tissue: Type of Lesion: URINARY BLADDER: PAPILLARY UROTHELIAL TUMOR, Dose [Carcinogen]: 1.5 MG IN 0.15 ML SALINE INJECTED INTO A SURGICALLY EXPOSED BLADDER 1/2 WK FOR A TOTAL OF 3 INJECTIONS): 8/30 (27%), 2/23 (9%), 67%, p<0.05
tumour outcome (control, treated, inhibition, significance) (Dose [Inhibitor]: 120 MG/KG DIET DAILY STARTING 1 WK AFTER LAST CARCINOGEN TREATMENT AND CONTINUING FOR 6 MO (STUDY DURATION: 9 MO), Species: HAMSTER, Strain/Sex: SYRIAN/MALE, Target Tissue: Type of Lesion: TRACHEA: BENIGN EPITHELIAL NEOPLASM, Dose [Carcinogen]: 0.5% IN 1 ML PHOSPHATE-BUFFERED SALINE 1/WK FOR 12 WK): 6/63 (10%), 13/61 (21%), -110%, not significant
tumour outcome (control, treated, inhibition, significance) (Dose [Inhibitor]: 120 MG/KG DIET DAILY STARTING 1 WK AFTER LAST CARCINOGEN TREATMENT AND CONTINUING FOR 6 MO (STUDY DURATION: 9 MO), Species: HAMSTER, Strain/Sex: SYRIAN/MALE, Target Tissue: Type of Lesion: TRACHEA: CARCINOMA, Dose [Carcinogen]: 0.5% IN 1 ML PHOSPHATE-BUFFERED SALINE 1/WK FOR 12 WK): 4/63 (6%), 12/61 (20%), -233%, p<0.05
tumour outcome (control, treated, inhibition, significance) (Dose [Inhibitor]: 120 MG/KG DIET DAILY STARTING 1 WK AFTER LAST CARCINOGEN TREATMENT AND CONTINUING FOR 6 MO (STUDY DURATION: 9 MO), Species: HAMSTER, Strain/Sex: SYRIAN/MALE, Target Tissue: Type of Lesion: TRACHEA: EPITHELIAL NEOPLASM, Dose [Carcinogen]: 0.5% IN 1 ML PHOSPHATE-BUFFERED SALINE 1/WK FOR 12 WK): 10/63 (16%), 22/61 (36%), -125%, p<0.05
tumour outcome (control, treated, inhibition, significance) (Dose [Inhibitor]: 120 MG/KG IN DIET DAILY FOR 6 MO STARTING 1 WK AFTER FINAL CARCINOGEN DOSE (STUDY DURATION: 9 MO), Species: HAMSTER, Strain/Sex: SYRIAN/MALE, Target Tissue: Type of Lesion: TRACHEA: BENIGN EPITHELIAL NEOPLASM, Dose [Carcinogen]: 0.5% SOLUTION FOR 5 SECOND EXPOSURE 1/WK FOR 12 WK): 6/63 (10%), 13/61 (21%), -110%, not significant
tumour outcome (control, treated, inhibition, significance) (Dose [Inhibitor]: 120 MG/KG IN DIET DAILY FOR 6 MO STARTING 1 WK AFTER FINAL CARCINOGEN DOSE (STUDY DURATION: 9 MO), Species: HAMSTER, Strain/Sex: SYRIAN/MALE, Target Tissue: Type of Lesion: TRACHEA: EPITHELIAL NEOPLASM, Dose [Carcinogen]: 0.5% SOLUTION FOR 5 SECOND EXPOSURE 1/WK FOR 12 WK): 10/63 (16%), 22/61 (36%), -125%, p<0.05
tumour outcome (control, treated, inhibition, significance) (Dose [Inhibitor]: 120 OR 300 MG/KG DIET DAILY STARTING ON THE DAY OF THE FIRST INSTILLATION OF CARCINOGEN OR 1 D AFTER THE LAST CARCINOGEN, Species: RAT, Strain/Sex: WISTAR-LEWIS/FEMALE, Target Tissue: Type of Lesion: URINARY BLADDER: CARCINOMA, Dose [Carcinogen]: 1.5 MG IN 0.15 ML OF 0.9% NACL SOLUTION INSTILLED DIRECTLY INTO THE URINARY BLADDER 1/2 WK FOR A TOTAL OF 3 DOSES): 10/23 (43%), 27/87 (31%), 28%, p 0.11
tumour outcome (control, treated, inhibition, significance) (Dose [Inhibitor]: 120 OR 300 MG/KG DIET DAILY STARTING ON THE DAY OF THE FIRST INSTILLATION OF CARCINOGEN OR 1 D AFTER THE LAST CARCINOGEN, Species: RAT, Strain/Sex: WISTAR-LEWIS/FEMALE, Target Tissue: Type of Lesion: URINARY BLADDER: NEOPLASM, Dose [Carcinogen]: 1.5 MG IN 0.15 ML OF 0.9% NACL SOLUTION INSTILLED DIRECTLY INTO THE URINARY BLADDER 1/2 WK FOR A TOTAL OF 3 DOSES): 13/23 (57%), 35/87 (40%), 30%, p 0.08
tumour outcome (control, treated, inhibition, significance) (Dose [Inhibitor]: 120 OR 300 MG/KG DIET DAILY STARTING ON THE DAY OF THE FIRST INSTILLATION OF CARCINOGEN OR 1 D AFTER THE LAST CARCINOGEN, Species: RAT, Strain/Sex: WISTAR-LEWIS/FEMALE, Target Tissue: Type of Lesion: URINARY BLADDER: SQUAMOUS CELL CARCINOMA, Dose [Carcinogen]: 1.5 MG IN 0.15 ML OF 0.9% NACL SOLUTION INSTILLED DIRECTLY INTO THE URINARY BLADDER 1/2 WK FOR A TOTAL OF 3 DOSES): 4/23 (17%), 8/87 (9%), 47%, p 0.11
tumour outcome (control, treated, inhibition, significance) (Dose [Inhibitor]: 120 OR 300 MG/KG DIET DAILY STARTING ON THE DAY OF THE FIRST INSTILLATION OF CARCINOGEN OR 1 D AFTER THE LAST CARCINOGEN, Species: RAT, Strain/Sex: WISTAR-LEWIS/FEMALE, Target Tissue: Type of Lesion: URINARY BLADDER: TRANSITIONAL CELL CARCINOMA, Dose [Carcinogen]: 1.5 MG IN 0.15 ML OF 0.9% NACL SOLUTION INSTILLED DIRECTLY INTO THE URINARY BLADDER 1/2 WK FOR A TOTAL OF 3 DOSES): 7/23 (30%), 23/87 (26%), 13%, p 0.23
